Measured values published in patent US9249132B2, “Substituted bicyclic aromatic compounds as S-nitrosoglutathione reductase inhibitors” (Nivalis Therapeutics, Inc., priority 2010, dated 2016).

Tests used:
[1] = target: T1, GSNOR (Homo sapiens, UniProt P11766); experiment: GSNOR assay (inhibition of GSNOR activity, change in 340 nm absorbance); format: biochemical; details: 100 mM NaPO4 pH 7.4, 0.240 mM GSNO, 0.300 mM NADH, 0.5 μg/mL GSNO Reductase, 1% DMSO, 25° C.
T1 construct: made in house; host or cells: E. coli
Protocol: Various compounds were tested in vitro for their ability to inhibit GSNOR activity.
GSNOR expression and purification is described in Biochemistry 2000, 39, 10720-10729.
GSNOR Fermentation: Pre-cultures were grown from stabs of a GSNOR glycerol stock in 2XYT media containing 100 ug/ml ampicillin after an overnight incubation at 37° C. Cells were then added to fresh 2XYT (4 L) containing ampicillin and grown to an OD (A600) of 0.6-0.9 at 37° C. before induction. GSNOR expression was induced with 0.1% arabinose in an overnight incubation at 20° C.
GSNOR Purification: E. coli cell paste was lysed by nitrogen cavitation and the clarified lysate purified by Ni affinity chromatography on an AKTA FPLC (Amersham Pharmacia). The column was eluted in 20 mM Tris pH 8.0/250 mM NaCl with a 0-500 mM imidazole gradient. Eluted GSNOR fractions containing the Smt-GSNOR fusion were digested overnight with Ulp-1 at 4° C. to remove the affinity tag then re-run on the Ni column under the same conditions. GSNOR was recovered in the flowthrough fraction and for crystallography is further purified by Q-Sepharose and Heparin flowthrough chromatography in 20 mM Tris pH 8.0, 1 mM DTT, 10 uM ZnSO4.
GSNOR Assay: GSNO and enzyme/NADH Solutions are made up fresh each day. The solutions are filtered and allowed to warm to room temperature. GSNO solution: 100 mM NaPO4 (pH 7.4), 0.480 mM GSNO. 396 μL of GSNO Solution is added to a cuvette followed by 8 μL of test compound in DMSO (or DMSO only for full reaction control) and mixed with the pipette tip. Compounds to be tested are made up at a stock concentration of 10 mM in 100% DMSO. 2 fold serial dilutions are done in 100% DMSO. 8 μL of each dilution are added to an assay so that the final concentration of DMSO in the assay is 1%. The concentrations of compounds tested range from 100 to 0.003 μM. Enzyme/NADH solution: 100 mM NaPO4 (pH 7.4), 0.600 mM NADH, 1.0 μg/mL GSNO Reductase. 396 μL of the Enzyme/NADH solution is added to the cuvette to start the reaction. The cuvette is placed in the Cary 3E UV/Visible Spectrophotometer and the change in 340 nm absorbance/min at 25° C. is recorded for 3 minutes. The assays are done in triplicate for each compound concentration. IC50's for each compound are calculated using the standard curve analysis in the Enzyme Kinetics Module of SigmaPlot.
Final assay conditions: 100 mM NaPO4, pH 7.4, 0.240 mM GSNO, 0.300 mM NADH, 0.5 μg/mL GSNO Reductase, and 1% DMSO. Final volume: 800 μL/cuvette.

[2] = test system: dextran sodium sulfate (DSS)-induced IBD; experiment: Chronic treatment model of DSS-induced IBD; format: in vivo, mouse
Source text: Acute and chronic models of dextran sodium sulfate (DSS)-induced IBD in mice were used to explore efficacy of GSNORi against this disease. Acute and chronic DSS-induced IBD are widely used and well characterized models that induce pathological changes in the colon similar to those observed in the human disease. In these models and in human disease, epithelial cells within the crypts of the colon are disrupted, leading to dysfunction of the epithelial barrier and the ensuing tissue inflammation, edema, and ulceration. GSNORi therapy may benefit IBD by restoring s-nitrosoglutathione (GSNO) levels, and thus prevent or reverse the epithelial barrier dysfunction.
Experimental IBD was induced by administration of DSS in the drinking water of male C57B1/6 mice (N=10 to 12 mice per group) for 6 consecutive days. GSNORi was dosed orally at doses of 10 mg/kg/day for 14 days starting one day after cessation of DSS exposure. Efficacy of GSNORi was assessed in a blinded fashion via endoscopy after 7 days and 14 days of GSNORi dosing and via histopathology after 14 days of GSNORi dosing using a five point scale ranging from a score=0 (normal tissue) through a score=4 (ulcerative tissue damage and marked pathological changes). Levels of circulating cytokines involved in inflammatory pathways were also assessed. The effect of GSNORi was compared to vehicle treated controls. The corticosteroid, prednisolone, was used as the positive control in this study and was administered daily at 3 mg/kg/day via oral dosing. Naïve mice (N=5) were also assessed as a normal tissue control.

[3] = test system: cigarette smoke-induced COPD; experiment: Subchronic (11 day) cigarette smoke exposure COPD model; format: in vivo, mouse; details: oral 10 mg/kg/day for 11 days
Protocol: Infiltration of inflammatory cells into the bronchoalveolar lavage fluid (BALF) and BALF levels of chemokines involved in inflammation and tissue turnover/repair were measured to assess the influences of GSNOR inhibitors on some of the early events associated with the initiation and progression of COPD. […] In animal models, changes in lung pathology are only evident after extended (several months) duration of exposure to cigarette smoke, thus making chronic models prohibitive as effective screening tools. […] The key roles of inflammation in the initiation and progression of COPD, make these short duration models relevant for initial tests of efficacy of novel therapeutics. Subchronic (11 Day) Smoke Exposure Model: Female C57B1/6 mice (N=10 per group) were exposed to cigarette smoke generated from Marlboro 100 cigarettes without filters. Exposure times were 25 min. on study day 1, 35 min. on study day 2, and 45 min. on study days 3 to 11. GSNOR inhibitors were administered one hour prior to smoke exposure on each day. GSNOR inhibitors were dosed orally at 1 to 10 mg/kg/day for 11 days. The effects of GSNOR inhibitors were assessed by quantitating the number of total cells, and leukocytes differentials in the BALF via light microscopy at 24 h after the last exposure. The effect of GSNOR inhibitors were compared to vehicle treated controls and expressed as percent inhibition of the cigarette smoke induced increases in BALF cell numbers. Roflumilast was used as the positive control for the study and was dosed at 5 mg/kg/day. A group of naïve mice (N=10) was exposed to air and dosed with vehicle as a negative control for the study.

[4] = chronic model, oral 10 mg/kg/day for up to 14 consecutive days, treatment dosing regimen

T1 sequence (P11766 whole entry): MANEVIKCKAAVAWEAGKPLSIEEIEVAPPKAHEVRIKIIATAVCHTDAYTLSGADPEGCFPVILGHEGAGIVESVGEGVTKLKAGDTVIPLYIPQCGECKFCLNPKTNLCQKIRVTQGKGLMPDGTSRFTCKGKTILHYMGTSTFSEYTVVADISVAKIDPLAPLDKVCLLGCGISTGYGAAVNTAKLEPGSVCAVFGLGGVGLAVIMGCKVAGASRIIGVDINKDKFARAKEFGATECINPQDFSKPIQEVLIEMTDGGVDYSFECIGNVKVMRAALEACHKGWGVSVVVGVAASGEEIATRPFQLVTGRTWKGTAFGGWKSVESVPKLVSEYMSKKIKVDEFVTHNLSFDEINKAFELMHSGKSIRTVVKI

Compound: O=C(O)c1ccc(-c2ccc3cc(O)ccc3c2)c(Cl)c1 [Example 1, 3-chloro-4-(6-hydroxynaphthalen-2-yl)benzoic acid]
- IC50 [1]: < 50 nM
- colon injury (in words) ([2]; chronic DSS-induced IBD): attenuated colon injury
- decrease of percent of mice presenting with severe colon injury scores via endoscopy, of vehicle control [2, 4]: 50%
- decrease of percent of mice presenting with severe colon injury scores via histopathology, of vehicle control [2, 4]: 17%
- inhibition of smoke-induced increase in lymphocytes in BAL [3]: 41%
- inhibition of smoke-induced increase in macrophages in BAL ([3]; p<0.05): 40%
- inhibition of smoke-induced increase in neutrophils in BAL ([3]; p<0.05): 49%
- inhibition of smoke-induced increase in total cells in BAL ([3]; p<0.05): 40%
